Data from PubChem BioAssay (NCI).
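Tested at 5 concentrations; 48 h exposure; 96-well plates; endpoints linearly interpolated, else capped at highest concentration. At the GI50, growth is halved. Definition used: TGI = concentration required for complete inhibition of growth.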

Assays:
Assay in all cases: inhibition of tumour cell growth, NCI panel, 48 h
CCRF-CEM leukemia = system: CCRF-CEM leukemia
A549 NSCLC = system: A549 NSCLC
MOLT-4 leukemia = system: MOLT-4 leukemia
COLO 205 colon = system: COLO 205 colon
NCI-H522 lung = system: NCI-H522 lung
RPMI-8226 leukemia = system: RPMI-8226 leukemia
HS 578T breast = system: HS 578T breast
SNB-75 CNS = system: SNB-75 CNS
UACC-62 melanoma = system: UACC-62 melanoma
CAKI-1 renal = system: CAKI-1 renal
NCI-H226 lung = system: NCI-H226 lung
PC-3 prostate = system: PC-3 prostate
OVCAR-3 ovarian = system: OVCAR-3 ovarian
HL-60(TB) leukemia = system: HL-60(TB) leukemia
ACHN renal = system: ACHN renal
SK-OV-3 ovarian = system: SK-OV-3 ovarian
MCF7 breast = system: MCF7 breast
SF-295 CNS = system: SF-295 CNS
KM12 colon = system: KM12 colon
LOX IMVI melanoma = system: LOX IMVI melanoma
NCI-H23 lung = system: NCI-H23 lung
BT-549 breast = system: BT-549 breast
IGROV1 ovarian = system: IGROV1 ovarian
OVCAR-5 ovarian = system: OVCAR-5 ovarian
HT29 colon = system: HT29 colon
SK-MEL-5 melanoma = system: SK-MEL-5 melanoma
HCC-2998 colon = system: HCC-2998 colon
MDA-MB-435 = system: MDA-MB-435
HCT-116 colon = system: HCT-116 colon
T-47D breast = system: T-47D breast
786-0 renal = system: 786-0 renal
M14 melanoma = system: M14 melanoma
TK-10 renal = system: TK-10 renal
EKVX NSCLC = system: EKVX NSCLC
OVCAR-4 ovarian = system: OVCAR-4 ovarian
HOP-92 NSCLC = system: HOP-92 NSCLC
SW-620 colon = system: SW-620 colon
RXF 393 renal = system: RXF 393 renal
U251 CNS = system: U251 CNS
UACC-257 melanoma = system: UACC-257 melanoma
SN12C renal = system: SN12C renal
SNB-19 CNS = system: SNB-19 CNS
K-562 leukemia = system: K-562 leukemia
UO-31 renal = system: UO-31 renal
SR leukemia = system: SR leukemia
HCT-15 colon = system: HCT-15 colon
MDA-MB-231 breast = system: MDA-MB-231 breast
NCI-H460 lung = system: NCI-H460 lung
SF-268 CNS = system: SF-268 CNS
SK-MEL-2 melanoma = system: SK-MEL-2 melanoma
DU-145 prostate = system: DU-145 prostate
NCI/ADR-RES ovarian = system: NCI/ADR-RES ovarian
SK-MEL-28 melanoma = system: SK-MEL-28 melanoma
MALME-3M melanoma = system: MALME-3M melanoma
OVCAR-8 ovarian = system: OVCAR-8 ovarian
SF-539 CNS = system: SF-539 CNS
HOP-62 NSCLC = system: HOP-62 NSCLC

For `O=S(=O)(Nc1cc(F)cc(F)c1)c1ccc(-c2cnc(C3CC3)o2)cc1`, the GI50 (CCRF-CEM leukemia) was 2.44 µM, the TGI (CCRF-CEM leukemia) was greater than 100 µM and the GI50 (A549 NSCLC) was 3.8 µM. The TGI (A549 NSCLC) was greater than 100 µM, the GI50 (MOLT-4 leukemia) was 3.73 µM and the TGI (MOLT-4 leukemia) was greater than 100 µM. The GI50 (COLO 205 colon) was 2.08 µM, the TGI (COLO 205 colon) was 12.3 µM and the GI50 (NCI-H522 lung) was 2.03 µM. The TGI (NCI-H522 lung) was 40.4 µM, the GI50 (RPMI-8226 leukemia) was 3.44 µM and the TGI (RPMI-8226 leukemia) was 66.2 µM. The GI50 (HS 578T breast) was 1.83 µM, the TGI (HS 578T breast) was 8.6 µM and the GI50 (SNB-75 CNS) was 1.05 µM. The TGI (SNB-75 CNS) was 3.98 µM, the GI50 (UACC-62 melanoma) was 0.94 µM and the TGI (UACC-62 melanoma) was 20 µM. For the same molecule, the GI50 (CAKI-1 renal) was 1.19 µM, the TGI (CAKI-1 renal) was 38.4 µM and the GI50 (NCI-H226 lung) was 3.88 µM. The TGI (NCI-H226 lung) was 53 µM, the GI50 (PC-3 prostate) was 1.99 µM and the TGI (PC-3 prostate) was greater than 100 µM. It also gave a GI50 (OVCAR-3 ovarian) of 1.57 µM, a TGI (OVCAR-3 ovarian) of 15.6 µM and a GI50 (HL-60(TB) leukemia) of 2.12 µM. It also gave a TGI (HL-60(TB) leukemia) of 13.8 µM, a GI50 (ACHN renal) of 4.92 µM and a TGI (ACHN renal) greater than 100 µM. The GI50 (SK-OV-3 ovarian) was 3.8 µM, the TGI (SK-OV-3 ovarian) was 42 µM and the GI50 (MCF7 breast) was 1.45 µM. For the same molecule, the TGI (MCF7 breast) was greater than 100 µM, the GI50 (SF-295 CNS) was 1.29 µM and the TGI (SF-295 CNS) was 11.7 µM. The GI50 (KM12 colon) was 0.869 µM, the TGI (KM12 colon) was 32 µM and the GI50 (LOX IMVI melanoma) was 4.34 µM. The TGI (LOX IMVI melanoma) was greater than 100 µM, the GI50 (NCI-H23 lung) was 4.55 µM and the TGI (NCI-H23 lung) was 77.1 µM. It also gave a GI50 (BT-549 breast) of 3.33 µM, a TGI (BT-549 breast) of 46.7 µM and a GI50 (IGROV1 ovarian) of 2.01 µM. For the same molecule, the TGI (IGROV1 ovarian) was greater than 100 µM, the GI50 (OVCAR-5 ovarian) was 6.12 µM and the TGI (OVCAR-5 ovarian) was greater than 100 µM. For the same molecule, the GI50 (HT29 colon) was 1.76 µM, the TGI (HT29 colon) was 12.9 µM and the GI50 (SK-MEL-5 melanoma) was 3.27 µM. For the same molecule, the TGI (SK-MEL-5 melanoma) was 13.1 µM, the GI50 (HCC-2998 colon) was 5.62 µM and the TGI (HCC-2998 colon) was 44.2 µM. The GI50 (MDA-MB-435) was 0.305 µM, the TGI (MDA-MB-435) was 2.09 µM and the GI50 (HCT-116 colon) was 3.04 µM. It also gave a TGI (HCT-116 colon) greater than 100 µM, a GI50 (T-47D breast) of 3.08 µM and a TGI (T-47D breast) of 79.9 µM. For the same molecule, the GI50 (786-0 renal) was 5.05 µM, the TGI (786-0 renal) was greater than 100 µM and the GI50 (M14 melanoma) was 1.85 µM. For the same molecule, the TGI (M14 melanoma) was greater than 100 µM, the GI50 (TK-10 renal) was 8.65 µM and the TGI (TK-10 renal) was 68.7 µM. It also gave a GI50 (EKVX NSCLC) of 5.31 µM, a TGI (EKVX NSCLC) greater than 100 µM and a GI50 (OVCAR-4 ovarian) of 5.93 µM. For the same molecule, the TGI (OVCAR-4 ovarian) was 90.9 µM, the GI50 (HOP-92 NSCLC) was 1.68 µM and the TGI (HOP-92 NSCLC) was 11.4 µM. For the same molecule, the GI50 (SW-620 colon) was 1.12 µM, the TGI (SW-620 colon) was greater than 100 µM and the GI50 (RXF 393 renal) was 1.66 µM. It also gave a TGI (RXF 393 renal) of 6.79 µM, a GI50 (U251 CNS) of 3.28 µM and a TGI (U251 CNS) greater than 100 µM. It also gave a GI50 (UACC-257 melanoma) of 12.3 µM, a TGI (UACC-257 melanoma) of 52.9 µM and a GI50 (SN12C renal) of 4.87 µM. For the same molecule, the TGI (SN12C renal) was 59.6 µM, the GI50 (SNB-19 CNS) was 3.73 µM and the TGI (SNB-19 CNS) was greater than 100 µM. For the same molecule, the GI50 (K-562 leukemia) was 0.582 µM, the TGI (K-562 leukemia) was greater than 100 µM and the GI50 (UO-31 renal) was 4.69 µM. It also gave a TGI (UO-31 renal) greater than 100 µM, a GI50 (SR leukemia) of 0.513 µM and a TGI (SR leukemia) greater than 100 µM. The GI50 (HCT-15 colon) was 0.702 µM, the TGI (HCT-15 colon) was 47.9 µM and the GI50 (MDA-MB-231 breast) was 6.46 µM. The TGI (MDA-MB-231 breast) was 41.7 µM, the GI50 (NCI-H460 lung) was 2.64 µM and the TGI (NCI-H460 lung) was 21.4 µM. The GI50 (SF-268 CNS) was 6.73 µM, the TGI (SF-268 CNS) was 48.8 µM and the GI50 (SK-MEL-2 melanoma) was 4.51 µM. It also gave a TGI (SK-MEL-2 melanoma) of 41.6 µM, a GI50 (DU-145 prostate) of 4.11 µM and a TGI (DU-145 prostate) greater than 100 µM. For the same molecule, the GI50 (NCI/ADR-RES ovarian) was 1.7 µM, the TGI (NCI/ADR-RES ovarian) was 68.1 µM and the GI50 (SK-MEL-28 melanoma) was 13.3 µM. For the same molecule, the TGI (SK-MEL-28 melanoma) was greater than 100 µM, the GI50 (MALME-3M melanoma) was 2.98 µM and the TGI (MALME-3M melanoma) was 70.1 µM. It also gave a GI50 (OVCAR-8 ovarian) of 4.31 µM, a TGI (OVCAR-8 ovarian) greater than 100 µM and a GI50 (SF-539 CNS) of 2.52 µM. The TGI (SF-539 CNS) was 14.6 µM, the GI50 (HOP-62 NSCLC) was 2.6 µM and the TGI (HOP-62 NSCLC) was 33.6 µM.
